A value given as a limit tells only on which side of the number the result lay.

Assay [1] concerns SK-BR-3 cells (HER2 overexpressing cell line). As to the kind of experiment: SK-BR-3 cell proliferation inhibitory activity (CellTiter-Glo, 120 hours). The format is cell-based. The note with it: Homo sapiens. The method, then: (§1) To evaluate the cell proliferation inhibitory activity of the compound according to the present invention on HER2 and EGFR kinases, the following method was performed using HER2 overexpressing cell lines (SK-BR-3, BT-474, and N-87) and EGFR expressing cell line (HaCaT).
(§2) McCOY'S 5A supplemented with 10% FBS was used for SK-BR-3 cells, RPMI-1640 medium supplemented with 20% FBS was used for BT-474 cancer cells, and RPMI-1640 medium supplemented with 10% FBS was used for N-87 cancer cells. DMEM supplemented with 10% FBS was used for HaCaT cells.
(§3) For SK-BR-3 cells, 5000 cells were aliquoted into each well of a white clear bottom 96 well plate (Corning) 48 hours before treatment with the compounds of Examples. For BT-474 cells, 5000 cells were aliquoted into each well of a white clear bottom 96 well plate (Corning) 48 hours before treatment with the compounds of Examples. For N-87 cells, 5000 cells were aliquoted into each well of a white clear bottom 96 well plate (Corning) 24 hours before treatment with the compounds of Examples. For HaCaT cells, 3000 cells were aliquoted into each well of a white clear bottom 96 well plate (Corning) 24 hours before treatment with the compounds of Examples. For SK-BR-3 cells and BT-474 cells, the compounds of Examples were diluted in dimethyl sulfoxide (three-fold dilution, a total of 11 concentrations) and injected each in an amount of 1 μl to a final concentration of 0.2 nM to 10 μM. For N-87 cells, the compounds of Examples were diluted in dimethyl sulfoxide (five-fold dilution, a total of 11 concentrations) and injected each in an amount of 0.5 μl to a final concentration of […] to 5 μM. For HaCaT cells, the compounds of Examples were diluted in dimethyl sulfoxide (three-fold dilution, a total of 11 concentrations) and injected each in an amount of 0.5 μl to a final concentration of 0.8 nM to 45 μM. For the measurement of living cells, the cells were stored at room temperature for 10 minutes using CellTiter-Glo cell viability reagent (Promega) after a certain period of time (SK-BR-3: 120 hours, BT-474: 120 hours, N-87: 72 hours, and HaCaT: 72 hours) post treatment with the compounds of Examples, and the luminescence intensity thereof was measured using a reader (SynergyNeo, Biotek). Each test was repeated three times.
(§4) The result values were calculated as a cell growth rate (%) compared to those of the control group. A graph was created using the GraphPad Prism version 5.0 program, and GI50 values were calculated.
In general terms: ATP-based viability assays read luminescence as a measure of living cells.

The subject of assay [2] is HaCaT cells (EGFR expressing cell line). As to the kind of experiment: HaCaT cell proliferation inhibitory activity (CellTiter-Glo, 72 hours). The format is cell-based. The note with it: Homo sapiens. The method, then:
as §1, §2, §3, §4

As usually defined, the GI50 is the concentration giving 50% growth inhibition. As to `C=CC(=O)N1CC(Oc2cc3c(Nc4cc(-c5cccc(C#N)c5)ccc4OC)ncnc3cc2OC)C1` [Example 12, 3′-((6-((1-acryloylazetidin-3-yl)oxy)-7-methoxy-quinazolin-4-yl)amino)-4′-methoxy-[1,1′-biphenyl]-3-carbonitrile], the GI50 in assay [1] and in assay [2] was at most 0.15 µM in each case.

Take `C=CC(=O)N1CC(Oc2cc3c(Nc4cc(-c5ccc(F)cc5F)ccc4OC)ncnc3cc2OC)C1` [Example 13, 1-(3-((4-((2′,4′-difluoro-4-methoxy-[1,1′-biphenyl]-3-yl)amino)-7-methoxy-quinazolin-6-yl)oxy)azetidin-1-yl)prop-2-en-1-one]: the GI50 in assay [1] and in assay [2] was at most 0.15 µM each time.

For `C=CC(=O)N1CC(Oc2cc3c(Nc4cc(-c5ccc(F)c(C#N)c5)ccc4OC)ncnc3cc2OC)C1` [Example 14, 3′-((6-((1-acryloylazetidin-3-yl)oxy)-7-methoxy-quinazolin-4-yl)amino)-4-fluoro-4′-methoxy-[1,1′-biphenyl]-3-carbonitrile], the concentration for 50% growth inhibition (GI50) in assay [1] and in assay [2] was at most 0.15 µM throughout.

With `C=CC(=O)N1CC(Oc2cc3c(Nc4cc(-c5ccc(Cl)cc5F)ccc4OC)ncnc3cc2OC)C1` [Example 15, 1-(3-((4-((4′-chloro-2′-fluoro-4-methoxy-[1,1′-biphenyl]-3-yl)amino)-7-methoxy-quinazolin-6-yl)oxy)azetidin-1-yl)prop-2-en-1-one], the GI50 in assay [1] and in assay [2] was at most 0.15 µM each time.

Take `C=CC(=O)N1CC(Oc2cc3c(Nc4cc(-c5cccc(F)c5Cl)ccc4OC)ncnc3cc2OC)C1` [Example 18, 1-(3-((4-((2′-chloro-3′-fluoro-4-methoxy-[1,1′-biphenyl]-3-yl)amino)-7-methoxy-quinazolin-6-yl)oxy)azetidin-1-yl)prop-2-en-1-one]: the GI50 in assay [1] and in assay [2] was at most 0.15 µM each time.

As to `C=CC(=O)N1CC(Oc2cc3c(Nc4cc(-c5cccc(F)c5F)ccc4OC)ncnc3cc2OC)C1` [Example 19, 1-(3-((4-((2′,3′-difluoro-4-methoxy-[1,1′-biphenyl]-3-yl)amino)-7-methoxy-quinazolin-6-yl)oxy)azetidin-1-yl) prop-2-en-1-one], the GI50 in assay [1] and in assay [2] was at most 0.15 µM throughout.

In the case of `C=CC(=O)N1CC(Oc2cc3c(Nc4cc(-c5cccc(Cl)c5F)ccc4OC)ncnc3cc2OC)C1` [Example 20, 1-(3-((4-((3′-chloro-2′-fluoro-4-methoxy-[1,1′-biphenyl]-3-yl)amino)-7-methoxy-quinazolin-6-yl)oxy)azetidin-1-yl)prop-2-en-1-one], the GI50 in assay [1] and in assay [2] was at most 0.15 µM each time.

As to `C=CC(=O)N1CC(Oc2cc3c(Nc4cc(-c5cccc(F)c5C)ccc4OC)ncnc3cc2OC)C1` [Example 23, 1-(3-((4-((3′-fluoro-4-methoxy-2′-methyl-[1,1′-biphenyl]-3-yl)amino)-7-methoxy-quinazolin-6-yl)oxy)azetidin-1-yl)prop-2-en-1-one], the values for the GI50 in assay [1] and in assay [2] were 0.15 to 1 µM and at most 0.15 µM, respectively.

Regarding `C=CC(=O)N1CC(Oc2cc3c(Nc4cc(-c5ccc(F)cc5C)ccc4OC)ncnc3cc2OC)C1` [Example 25, 1-(3-((4-((4'-fluoro-4-methoxy-2′-methyl-[1,1′-biphenyl]-3-yl)amino)-7-methoxy-quinazolin-6-yl)oxy)azetidin-1-yl)prop-2-en-1-one], the GI50 in assay [1] and in assay [2] was at most 0.15 µM throughout.

Regarding `C=CC(=O)N1CC(Oc2cc3c(Nc4cc(-c5ccc(C#N)cc5)ccc4OC)ncnc3cc2OC)C1` [Example 26, 3′-((6-((1-acryloylazetidin-3-yl)oxy)-7-methoxy-quinazolin-4-yl)amino)-4′-methoxy-[1,1′-biphenyl]-4-carbonitrile], the GI50 in assay [1] and in assay [2] was at most 0.15 µM each time.

For `C=CC(=O)N1CC(Oc2cc3c(Nc4cc(-c5cnc(Cl)c(F)c5)ccc4OC)ncnc3cc2OC)C1` [Example 27, 1-(3-((4-((5-(6-chloro-5-fluoropyridin-3-yl)-2-methoxyphenyl)amino)-7-methoxy-quinazolin-6-yl)oxy)azetidin-1-yl)prop-2-en-1-one], the 50% growth inhibitory concentration (GI50) in assay [1] and in assay [2] was 0.15 to 1 µM each time.

In the case of `C=CC(=O)N1CC(Oc2cc3c(Nc4cc(-c5ccc(Cl)c(F)c5)ccc4OC)ncnc3cc2OC)C1` [Example 28, 1-(3-((4-((4′-chloro-3′-fluoro-4-methoxy-[1,1′-biphenyl]-3-yl)amino)-7-methoxy-quinazolin-6-yl)oxy)azetidin-1-yl)prop-2-en-1-one], the concentration for 50% growth inhibition (GI50) in assay [1] and in assay [2] was 0.15 to 1 µM in each case.

Consider `C=CC(=O)N1CC(Oc2cc3c(Nc4cc(-c5ccc(F)c(F)c5)ccc4OC)ncnc3cc2OC)C1` [Example 29, 1-(3-((4-((3′,4′-difluoro-4-methoxy-[1,1′-biphenyl]-3-yl)amino)-7-methoxy-quinazolin-6-yl)oxy)azetidin-1-yl)prop-2-en-1-one], for which the GI50 in assay [1] and in assay [2] was at most 0.15 µM in each case.

On to `C=CC(=O)N1CC(Oc2cc3c(Nc4cc(-c5ccc6ncnn6c5)ccc4OC)ncnc3cc2OC)C1` [Example 31, 1-(3-((4-((5-([1,2,4]triazolo [1,5-a]pyridin-6-yl)-2-methoxyphenyl)amino)-7-methoxy-quinazolin-6-yl)oxy)azetidin-1-yl)prop-2-en-1-one], for which the values for the GI50 in assay [1] and in assay [2] were 0.15 to 1 µM and over 1 µM, respectively.

On to `C=CC(=O)N1CC(Oc2cc3c(Nc4cc(-c5ccc6ccn(C)c6c5)ccc4OC)ncnc3cc2OC)C1` [Example 34, 1-(3-((7-methoxy-4-((2-methoxy-5-(1-methyl-1H-indol-6-yl)phenyl)amino)quinazolin-6-yl)oxy)azetidin-1-yl)prop-2-en-1-one], for which the GI50 in assay [1] was over 1 µM; in assay [2], 0.15 to 1 µM.

With `C=CC(=O)N1CC(Oc2cc3c(Nc4cc(-c5cccn6ccnc56)ccc4OC)ncnc3cc2OC)C1` [Example 35, 1-(3-((4-((5-(imidazo[1,2-a]pyridin-8-yl)-2-methoxyphenyl)amino)-7-methoxy-quinazolin-6-yl)oxy)azetidin-1-yl)prop-2-en-1-one], the GI50 in assay [1] was at most 0.15 µM; in assay [2], 0.15 to 1 µM.

`C=CC(=O)N1CC(Oc2cc3c(Nc4cc(-c5cccc6ncsc56)ccc4OC)ncnc3cc2OC)C1` [Example 36, 1-(3-((4-((5-(benzo[d]thiazol-7-yl)-2-methoxyphenyl)amino)-7-methoxy-quinazolin-6-yl)oxy)azetidin-1-yl)prop-2-en-1-one]: the GI50 in assay [1] and in assay [2] was 0.15 to 1 µM throughout.

Consider `C=CC(=O)N1CC(Oc2cc3c(Nc4cc(-c5cnn6cccnc56)ccc4OC)ncnc3cc2OC)C1` [Example 39, 1-(3-((7-methoxy-4-((2-methoxy-5-(pyrazolo[1,5-a]pyrimidin-3-yl)phenyl)amino)quinazolin-6-yl)oxy)azetidin-1-yl)prop-2-en-1-one], for which the GI50 in assay [1] and in assay [2] was 0.15 to 1 µM throughout.

For `C=CC(=O)N1CC(Oc2cc3c(Nc4cc(-c5coc6ccccc56)ccc4OC)ncnc3cc2OC)C1` [Example 40, 1-(3-((4-((5-(benzofuran-3-yl)-2-methoxyphenyl)amino)-7-methoxy-quinazolin-6-yl)oxy)azetidin-1-yl)prop-2-en-1-one], the GI50 in assay [1] is 0.15 to 1 µM; in assay [2], at most 0.15 µM.

Take `C=CC(=O)N1CC(Oc2cc3c(Nc4cc(-c5csc6ccccc56)ccc4OC)ncnc3cc2OC)C1` [Example 41, 1-(3-((4-((5-(benzo[b]thiophen-3-yl)-2-methoxyphenyl)amino)-7-methoxy-quinazolin-6-yl)oxy)azetidin-1-yl)prop-2-en-1-one]: the GI50 in assay [1] and in assay [2] was at most 0.15 µM each time.

Consider `C=CC(=O)N1CC(Oc2cc3c(Nc4cc(-c5ccoc5C)ccc4OC)ncnc3cc2OC)C1` [Example 51, 1-(3-((7-methoxy-4-((2-methoxy-5-(2-methylfuran-3-yl)phenyl)amino)quinazolin-6-yl)oxy)azetidin-1-yl)prop-2-en-1-one], for which the 50% growth inhibitory concentration (GI50) in assay [1] and in assay [2] was at most 0.15 µM in each case.

For `C=CC(=O)N1CC(Oc2cc3c(Nc4cc(-c5cccs5)c(C)cc4OC)ncnc3cc2OC)C1` [Example 52, 1-(3-((7-methoxy-4-((2-methoxy-4-methyl-5-(thiophen-2-yl)phenyl)amino)quinazolin-6-yl)oxy)azetidin-1-yl)prop-2-en-1-one], the GI50 in assay [1] and in assay [2] was at most 0.15 µM in each case.

For the origin of these results see patent US20240246940A1, “HETEROARYL DERIVATIVE COMPOUND AND USE THEREOF” (VORONOI INC., priority 2021, published 2024).
